Consider 28 compounds from patent publication US20240246992A1, “MACROCYCLIC LRRK2 KINASE INHIBITORS” (LES LABORATOIRES SERVIER, priority 2021, published 2024).

Sequence of human recombinant LRRK2 protein (Q5S007 whole entry): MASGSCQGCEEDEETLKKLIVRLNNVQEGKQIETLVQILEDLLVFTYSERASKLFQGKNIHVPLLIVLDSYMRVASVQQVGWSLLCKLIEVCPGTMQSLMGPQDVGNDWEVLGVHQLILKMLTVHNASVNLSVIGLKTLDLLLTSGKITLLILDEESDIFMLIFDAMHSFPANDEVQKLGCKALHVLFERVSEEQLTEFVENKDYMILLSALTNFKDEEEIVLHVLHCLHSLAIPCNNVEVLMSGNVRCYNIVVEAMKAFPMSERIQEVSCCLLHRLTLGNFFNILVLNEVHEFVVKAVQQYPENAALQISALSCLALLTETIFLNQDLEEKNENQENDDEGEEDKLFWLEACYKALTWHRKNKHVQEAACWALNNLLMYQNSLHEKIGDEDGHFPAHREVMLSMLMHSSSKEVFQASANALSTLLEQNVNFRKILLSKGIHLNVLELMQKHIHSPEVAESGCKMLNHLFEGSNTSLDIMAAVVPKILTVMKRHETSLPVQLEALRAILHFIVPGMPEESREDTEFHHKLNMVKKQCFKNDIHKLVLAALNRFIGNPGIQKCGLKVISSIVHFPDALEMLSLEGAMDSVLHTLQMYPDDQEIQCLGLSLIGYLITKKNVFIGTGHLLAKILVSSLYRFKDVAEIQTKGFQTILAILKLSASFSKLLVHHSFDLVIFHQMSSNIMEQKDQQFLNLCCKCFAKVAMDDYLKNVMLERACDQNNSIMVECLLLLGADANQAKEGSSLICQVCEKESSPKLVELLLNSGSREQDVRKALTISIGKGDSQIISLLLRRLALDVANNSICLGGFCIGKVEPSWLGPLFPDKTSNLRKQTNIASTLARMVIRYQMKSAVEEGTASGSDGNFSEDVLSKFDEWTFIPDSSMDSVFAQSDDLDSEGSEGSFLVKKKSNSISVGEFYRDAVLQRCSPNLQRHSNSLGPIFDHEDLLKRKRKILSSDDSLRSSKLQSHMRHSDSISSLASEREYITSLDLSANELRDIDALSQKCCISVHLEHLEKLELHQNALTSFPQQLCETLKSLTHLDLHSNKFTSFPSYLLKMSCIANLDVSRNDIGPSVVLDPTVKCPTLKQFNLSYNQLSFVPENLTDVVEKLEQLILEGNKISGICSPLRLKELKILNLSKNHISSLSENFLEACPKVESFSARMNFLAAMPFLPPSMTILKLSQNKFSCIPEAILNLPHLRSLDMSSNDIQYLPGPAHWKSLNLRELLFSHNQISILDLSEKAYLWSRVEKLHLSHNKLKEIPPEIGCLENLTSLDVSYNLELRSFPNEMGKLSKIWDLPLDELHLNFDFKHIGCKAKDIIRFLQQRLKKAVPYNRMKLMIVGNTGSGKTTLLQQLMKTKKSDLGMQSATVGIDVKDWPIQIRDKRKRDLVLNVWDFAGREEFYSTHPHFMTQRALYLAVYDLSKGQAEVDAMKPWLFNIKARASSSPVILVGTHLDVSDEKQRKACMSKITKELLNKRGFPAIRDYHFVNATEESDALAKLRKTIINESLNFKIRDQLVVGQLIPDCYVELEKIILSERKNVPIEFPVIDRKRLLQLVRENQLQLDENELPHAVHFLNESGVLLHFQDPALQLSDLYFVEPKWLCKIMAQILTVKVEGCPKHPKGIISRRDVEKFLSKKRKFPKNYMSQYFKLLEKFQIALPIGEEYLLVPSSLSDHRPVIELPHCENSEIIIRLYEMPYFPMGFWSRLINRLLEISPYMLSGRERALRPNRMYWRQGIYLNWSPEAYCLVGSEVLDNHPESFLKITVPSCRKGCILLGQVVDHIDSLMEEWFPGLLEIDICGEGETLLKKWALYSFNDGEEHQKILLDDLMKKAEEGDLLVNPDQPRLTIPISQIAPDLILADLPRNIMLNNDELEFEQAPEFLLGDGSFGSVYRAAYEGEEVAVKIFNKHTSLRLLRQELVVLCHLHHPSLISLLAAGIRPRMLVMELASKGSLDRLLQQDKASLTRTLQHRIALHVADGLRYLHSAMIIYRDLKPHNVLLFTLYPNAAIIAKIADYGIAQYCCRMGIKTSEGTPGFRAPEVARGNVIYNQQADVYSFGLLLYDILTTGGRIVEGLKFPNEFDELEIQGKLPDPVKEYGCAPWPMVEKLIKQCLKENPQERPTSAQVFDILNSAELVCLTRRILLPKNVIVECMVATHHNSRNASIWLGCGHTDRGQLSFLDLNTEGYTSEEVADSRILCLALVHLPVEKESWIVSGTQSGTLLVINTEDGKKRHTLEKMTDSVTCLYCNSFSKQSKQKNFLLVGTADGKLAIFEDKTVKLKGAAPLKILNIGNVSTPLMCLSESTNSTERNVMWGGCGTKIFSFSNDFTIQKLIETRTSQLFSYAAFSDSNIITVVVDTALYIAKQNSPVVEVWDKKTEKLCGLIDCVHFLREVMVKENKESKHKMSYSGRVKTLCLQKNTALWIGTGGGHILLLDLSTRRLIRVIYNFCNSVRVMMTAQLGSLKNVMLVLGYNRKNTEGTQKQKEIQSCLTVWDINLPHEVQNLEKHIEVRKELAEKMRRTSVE

The target of the experiment is human recombinant LRRK2 protein (Homo sapiens, UniProt Q5S007). Briefly: LRRK2 kinase activity assay (ADP-Glo, LRRKtide peptide). The class given is biochemical. Particulars: human recombinant LRRK2 wt, LRRKtide peptide and ATP, 1 h at 37° C. As for the experimental part:
The inhibition of LRRK2 kinase was assessed using human recombinant LRRK2 protein in an in vitro peptide-based kinase assay.
LRRK2 Kinase reactions were carried out in 384-well white polystyrene plates in a final volume of 6 μl using ADP-Glo™ Kinase Assay kit (Promega Corp.). Compound and substrates (LRRKtide peptide and ATP) in assay buffer were first dispensed in wells. Kinase reaction was then started by the addition of human recombinant LRRK2 protein. After 1 h-incubation at 37° C., the enzymatic reactions was stopped by the addition of 6 μl of ADP-Glo Reagent-1 and an additional 40-minutes incubation at 23° C. (residual ATP depletion). A final 30-minutes incubation after 12 μL reagent-2 addition (ADP to ATP conversion and luciferin/luciferase reaction) was performed before luminescent signal acquisition (EnVision™ multimode plate reader—PerkinElmer, Inc.). Data from 10 individual concentrations of tested compounds (N=2) were fitted (XLfit™—ID Business Solutions Ltd) to deliver IC50s (compound concentration leading to 50% inhibition of reference enzymatic activity).
The compounds are dissolved to 5 mM in DMSO. When needed, solutions are sonicated in a bath sonicator.
Table 2 provides the pIC50 values of the compounds according to the invention, obtained using the above mentioned kinase assay. Activities are represented as +++, ++ and +, having the following meanings: • «+++» means an IC50<10 nM • «++» means an IC50<100 nM • «+» means an IC50<1 μM • «−» means an IC50>1 μM
The term IC50 denotes the midpoint of a concentration-inhibition curve. With `C[C@H]1CCOC[C@H](C)Oc2nccc(n2)-c2n[nH]c3ccc(cc23)O1` [Example 46, (8S,13S)-8,13-dimethyl-7,10,14-trioxa-5,19,20,23-tetraazatetracyclo [13.5.2.1^2,6.0^18,21]tricosa-1(20),2(23),3,5,15(22),16,18(21)-heptaene], the IC50 is less than 100 nM. To `C[C@H]1COCCCOc2nc(cc(N3CCCC3)n2)-c2n[nH]c3ccc(cc23)O1` [Example 19, (13S)-13-methyl-4-(pyrrolidin-1-yl)-7,11,14-trioxa-5,19,20,23-tetraazatetra cyclo[13.5.2.1^2,6.0^18,21]tricosa-1(20),2(23),3,5,15(22),16,18(21)heptaene] belongs less than 10 nM.

Turning to `C[C@@H]1CCOCCOc2cccc(n2)-c2n[nH]c3ccc(cc23)O1` [Example 56, (13R)-13-methyl-7,10,14-trioxa-19,20,23-triazatetracyclo[13.5.2.1^2,6.0^18,21] tricosa-1(20),2(23),3,5,15(22),16,18(21)-heptaene], the half-maximal inhibitory concentration (IC50) is less than 10 nM.

On to `O=C1COc2cc(C3=CCOCC3)cc(c2)-c2n[nH]c3ccc(cc23)OCCCN1` [Example 208, 4-(3,6-dihydro-2H-pyran-4-yl)-7,14-dioxa-10,19,20-triazatetracyclo[13.5.2.1^2,6.0^18,21]tricosa-1(20),2(23),3,5,15,17,21-heptaen-9-one], for which the IC50 was less than 10 nM.

For the compound `C[C@@H]1COc2cncc(n2)-c2n[nH]c3ccc(cc23)O[C@@H](C)CCO1` [Example 58, (9R,13S)-9,13-dimethyl-7,10,14-trioxa-4,19,20,23-tetraazatetracyclo[13.5.2.1^2,6.0^18,21]tricosa-1(20),2(23),3,5,15(22),16,18(21)-heptaene], the IC50 is less than 100 nM. Under `CN1CCCOc2ccc3[nH]nc(c3c2)-c2cc(cnc2F)OCC1=O` [Example 200, 3-fluoro-10-methyl-7,14-dioxa-4,10,19,20-tetraazatetracyclo[13.5.2.1^2,6.0^18,21]tricosa-1(20),2,4,6(23),15(22),16,18(21)-heptaen-9-one] stands less than 1000 nM; under `C[C@@H]1COCCOCCn2cc(cn2)-c2n[nH]c3ccc(cc23)O1` [Example 50, (13R)-13-methyl-8,11,14-trioxa-4,5,19,20-tetraazatetracyclo[13.5.2.1^2,5.0^18,21]tricosa-1(20),2(23),3,15(22),16,18(21)-hexaene], less than 10 nM. For the compound `c1cc2[nH]nc3c2cc1OCCCOCCCCn1cc-3cn1` [Example 6, 10,14-dioxa-4,5,19,20-tetraazatetracyclo[13.5.2.1^2,5.0^18,21]tricosa-1(20),2(23), 3,15(22),16,18(21)-hexaene], the half-maximal inhibitory concentration (IC50) was less than 10 nM. To `O=C1COc2cc(cc(N3CCNCC3)c2)-c2n[nH]c3ccc(cc23)OCCCN1` [Example 212, 4-(piperazin-1-yl)-7,14-dioxa-10,19,20-triazatetracyclo [13.5.2.1^2,6.0^18,21]tricosa-1(20),2(23),3,5,15,17,21-heptaen-9-one] belongs less than 10 nM; to `C[C@@H]1CCOC[C@H](C)Oc2ccc3[nH]nc(c3c2)-c2ccnc(n2)O1` [Example 53, (8R,13S)-8,13-dimethyl-7,11,14-trioxa-5,19,20,23-tetraazatetracyclo[13.5.2.1^2,6.0^18,21]tricosa-1(20),2(23),3,5,15(22),16,18(21)-heptaene], less than 10 nM.

Consider `C[C@H]1COCCO[C@H](C)c2cncc(c2)-c2n[nH]c3ccc(cc23)O1` [Example 10, (7R,13S)-7,13-dimethyl-8,11,14-trioxa-4,19,20-triazatetracyclo[13.5.2.1^2,6.0^18,21]tricosa-1(20),2,4,6(23),15(22),16,18(21)-heptaene], for which the half-maximal inhibitory concentration (IC50) was less than 100 nM. Under `C[C@@H]1CCOCC[C@@H](C)n2cc(cn2)-c2n[nH]c3ccc(cc23)O1` [Example 35, (6R,12R)-6,12-dimethyl-9,13-dioxa-4,5,18,19-tetraazatetracyclo[12.5.2.1^2,5.0^17,20]docosa-1(19),2(22),3,14(21),15,17(20)-hexaene] stands less than 10 nM; under `C[C@H]1CCOC[C@H](C)Oc2cncc(c2)-c2n[nH]c3ccc(cc23)O1` [Example 20, (8S,13S)-8,13-dimethyl-7,10,14-trioxa-4,19,20-triazatetracyclo[13.5.2.1^2,6. 0^18,21]tricosa-1(20),2(23),3,5,15(22),16,18(21)-heptaene], less than 100 nM. To `C[C@@H]1CCNC(=O)CCn2cc(cn2)-c2n[nH]c3ccc(cc23)O1` [Example 179, (12R)-12-methyl-13-oxa-4,5,9,18,19-pentaazatetracyclo [12.5.2.1^2,5.0^17,20] docosa-1(19),2(22),3,14(21),15,17(20)-hexaen-8-one] belongs less than 10 nM; to `O=C1COc2cncc(c2)-c2n[nH]c3ccc(cc23)OCCCN1` [Example 136, 7,14-dioxa-4,10,19,20-tetraazatetracyclo[13.5.2.1^2,6.0^18,21]tricosa-1(20),2,4,6(23),15,17,21-heptaen-9-one], less than 10 nM; to `FC1(F)COCCOCCn2cc(cn2)-c2n[nH]c3ccc(cc23)O1` [Example 78, 13,13-difluoro-8,11,14-trioxa-4,5,19,20-tetraazatetra cyclo[13.5.2.1^2,5.0^18,21]tricosa-1(20),2(23),3, 15(22),16,18(21)-hexaene], less than 10 nM. To `CN1CCOCCOc2cc(cc(N3CCOCC3)c2)-c2n[nH]c3ccc(cc23)C1` [Example 91, 13-methyl-4-(morpholin-4-yl)-7,10-dioxa-13,19,20-triazatetracyclo [13.5.2.1^2,6.0^18,21]tricosa-1(20),2,4,6(23),15,17,21-heptaene] belongs less than 100 nM; to `C[C@@H]1CCOCCCOc2ccc3[nH]nc(c3c2)-c2cnn1c2` [Example 8, (6R)-6-methyl-9,13-dioxa-4,5,18,19-tetraazatetracyclo[12.5.2.1^2,5.0^17,20] docosa-1(19),2(22),3,14(21),15,17(20)-hexaene], less than 10 nM; to `C[C@H]1COc2ccc3[nH]nc(c3c2)-c2cccc(c2)OCC(=O)N[C@@H]1C` [Example 215, (11R,12R)-11,12-dimethyl-7,14-dioxa-10,19,20-triazatetracyclo[13.5.2.1^2,6.0^18,21]tricosa-1(20),2,4,6(23),15(22),16,18(21)-heptaen-9-one], less than 100 nM. For the compound `O=C1COc2cncc(c2)-c2n[nH]c3ccc(cc23)OCCN1` [Example 199, 7,13-dioxa-4,10,18,19-tetraazatetracyclo[12.5.2.1^2,6.0^17,20] docosa-1(19),2(22),3,5,14(21),15,17(20)-heptaen-9-one], the half-inhibitory concentration (IC50) is less than 100 nM. Under `O=C1COc2cc(cc(C3CCOC3)c2)-c2n[nH]c3ccc(cc23)OCCCN1` (stereo not shown) [Example 214, 4-(oxolan-3-yl)-7,14-dioxa-10,19,20-triazatetracyclo[13.5.2.1^2,6.0^18,21]tricosa-1(20),2(23),3,5,15,17,21-heptaen-9-one] stands less than 10 nM; under `C[C@@H]1COc2ccc3[nH]nc(c3c2)-c2cccc(c2)OCCN[C@H]1C` [Example 169, (11S,12S)-11,12-dimethyl-7,14-dioxa-10,19,20-triazatetracyclo[13.5.2.1^2,6.0^18,21]tricosa-1(20),2(23),3,5,15(22),16,18(21)-heptaene], less than 100 nM; under `Fc1ccc2cc1OCCNCCCOc1ccc3[nH]nc-2c3c1` [Example 139, 5-fluoro-7,14-dioxa-10,19,20-triazatetracyclo[13.5.2.1^2,6.0^18,21]tricosa-1(20),2,4,6(23),15,17,21-heptaene], less than 10 nM. Consider `O=C1CCc2cc(F)cc(c2)-c2n[nH]c3ccc(cc23)OCCCN1` [Example 219, 4-fluoro-14-oxa-10,19,20-triazatetracyclo[13.5.2.1^2,6.0^18,21]tricosa-1(20),2(23),3,5,15(22),16,18(21)-heptaen-9-one], for which the 50% inhibitory concentration (IC50) was less than 10 nM. Regarding `C[C@@H]1CCNC(=O)COc2cncc(c2)-c2n[nH]c3ccc(cc23)O1` [Example 162, (13R)-13-methyl-7,14-dioxa-4,10,19,20-tetraazatetracyclo[13.5.2.1^2,6.0^18,21]tricosa-1(20),2,4,6(23),15(22),16,18(21)-heptaen-9-one], the concentration for half-maximal inhibition (IC50) is less than 100 nM.

Turning to `O=C1COc2cccc(c2)-c2n[nH]c3ccc(cc23)OCCN1` [Example 192, 7,13-dioxa-10,18,19-triazatetracyclo[12.5.2.1^2,6.0^17,20]docosa-1(19),2(22),3,5,14(21),15,17(20)-heptaen-9-one], the IC50 is less than 1000 nM.

With `c1cc2cc(c1)-c1n[nH]c3ccc(cc13)OCCCNCCC2` [Example 167, 14-oxa-10,19,20-triazatetracyclo[13.5.2.1^2,6.0^18,21]tricosa-1(20),2(23),3,5,15(22),16,18(21)-heptaene], the IC50 is less than 10 nM. To `[2H]C1([2H])OCCn2cc(cn2)-c2n[nH]c3ccc(cc23)OC[C@H](C)OC1([2H])[2H]` [Example 107, (12S)-12-methyl(9,9,10,10-^2H4)-8,11,14-trioxa-4,5,19,20-tetraazatetracyclo [13.5.2.1^2,5.0^18,21]tricosa-1(20),2(23),3,15,17,21-hexaene] belongs less than 10 nM.
